Row | Compound | melting point
1 | CCOC(=O)c1ccc(N2C(=O)/C(=N\O)C(/C(=N\O)c3ccc(OC)cc3)C2c2ccccc2)cc1 (stereo not drawn) [Example I-226] | 219 to 221 °C (dec.)
2 | CC(C)(C)C(=O)C1=C(O)C(=O)N(c2ccc(C(F)(F)F)cc2)C1C1CCCCC1 (stereo not drawn) [Example I-56] | 238 to 239 °C
3 | CO/N=C/c1ccc(N2C(=O)C(O)=C(C(=O)c3ccc(OC)cc3)C2c2ccc(F)cc2)cc1 (stereo not drawn) [Example I-209] | 232 to 235 °C
4 | COc1ccc(C(=O)C2=C(O)C(=O)N(c3ccc(C4=NCCS4)cc3)C2c2ccc(F)cc2)cc1 (stereo not drawn) [Example I-216] | 229 to 232 °C
5 | COc1ccc(C(=O)C2=C(O)C(=O)N(c3ccc(Br)cc3)C2c2ccccc2)cc1 (stereo not drawn) [Example I-237] | 233 to 236 °C
6 | COc1ccc(C(=O)C2=C(O)C(=O)N(c3ccc(-c4ccon4)cc3)C2C2CCOCC2)cc1 (stereo not drawn) [Example I-224] | 268 to 272 °C
7 | CCC(CC)C1C(C(=O)c2ccc(=O)[nH]c2)=C(O)C(=O)N1c1ccc(-c2ccon2)cc1 (stereo not drawn) [Example I-208] | > 290 °C
8 | CCC(CC)C1c2c(-c3ccc(=O)[nH]c3)n[nH]c2C(=O)N1c1ccc(-c2ccon2)cc1 (stereo not drawn) [Example I-198, 4-(1-ethylpropyl)-5-(4-isoxazol-3-ylphenyl)-3-(6-oxo-1,6-dihydropyridin-3-yl)-4,5-dihydro-1H-pyrrolo[3,4-c]pyrazol-6-one] | > 290 °C
9 | COc1ccc(C(=O)C2=C(O)C(=O)N(c3ccc(-c4noc(C)n4)cc3)C2c2ccc(F)cc2)cc1 (stereo not drawn) [Example I-14] | 236 to 239 °C
10 | COc1ccc(C(=O)C2C(=O)C(=O)N(c3ccc(-c4ccon4)cc3)C2c2ccc(F)cc2)cc1 (stereo not drawn) [Example I-18] | 269 to 274 °C (dec.)
11 | CCCCC(CCCC)C1C(C(=O)c2ccc(OC)cc2)=C(O)C(=O)N1c1ccc(-c2ccon2)cc1 (stereo not drawn) [Example I-215] | 207 to 210 °C
12 | COc1ccc(C2=NCCNC3=C2C(c2ccc(F)cc2)N(c2ccc(C(F)(F)F)cc2)C3=O)cc1 (stereo not drawn) [Example I-229] | 213 to 215 °C
13 | COc1ccc(C(=O)C2C(=O)C(=O)N(c3ccc(-c4cnco4)cc3)C2c2ccccc2)cc1 (stereo not drawn) [Example I-78] | 253 to 254 °C
14 | COc1ccccc1C1c2c(C(C)(C)C)n[nH]c2C(=O)N1c1cccc(-c2ccon2)c1 (stereo not drawn) [II-8] | 202 °C
15 | CCC(CC)C1C(C(=O)c2ccc(OC)cc2)=C(O)C(=O)N1c1ccc(-c2noc(C)n2)cc1 (stereo not drawn) [Example I-232] | 223 to 225 °C
16 | CCC(CC)C1c2c(-c3ccc(OC)nc3)n[nH]c2C(=O)N1c1ccc(-c2ccon2)cc1 (stereo not drawn) [Example I-211] | 226 to 228 °C
17 | CC(C)(C)c1n[nH]c2c1C(C1CCCCC1)N(c1ccc(C(F)(F)F)cc1)C2=O (stereo not drawn) [Example I-194] | 245 to 246 °C
18 | COc1ccc(C(=O)C2=C(O)C(=O)N(c3ccc(C(F)(F)F)cc3)C2c2ccc(F)cc2)cc1 (stereo not drawn) [Example I-34] | 253 to 256 °C (dec.)
19 | COc1ccc(C(=O)C2=C(O)C(=O)N(c3cccc(-c4ccon4)c3)C2c2ccc(F)cc2)cc1 (stereo not drawn) [Example I-185] | 193 to 196 °C
20 | COc1ccc(C(=O)C2=C(O)C(=O)N(c3ccc(-c4ccon4)cc3)C2c2ccccc2)cc1 (stereo not drawn) [Example I-50] | 271 to 274 °C
21 | CC(C)(C)C(=O)C1/C(=N/O)C(=O)N(c2ccc(-c3ccon3)cc2)C1C1CCCCC1 (stereo not drawn) [Example I-193] | 255 to 256 °C
22 | COc1ccc(C(=O)C2=C(O)C(=O)N(c3ccc(OC)cc3)C2c2ccc(F)cc2)cc1 (stereo not drawn) [Example I-238] | 245 to 247 °C
23 | CCOC(=O)c1ccc(N2C(=O)C(OCc3ccccc3)=C(C(=NO)c3ccc(OC)cc3)C2c2ccccc2)cc1 (stereo not drawn) [Example I-225] | 196 to 201 °C
24 | CC(C)(C)C1=NCCNC2=C1C(C1CCCCC1)N(c1ccc(-c3ccon3)cc1)C2=O (stereo not drawn) [Example I-230] | 229 to 230 °C
25 | COc1ccc(C(=O)C2=C(O)C(=O)N(c3ccc(-c4noc(C)n4)cc3)C2C2CCCCC2)cc1 (stereo not drawn) [Example I-231] | 245 to 248 °C
26 | COc1ccc(C(=O)C2=C(O)C(=O)N(c3ccc(-c4ccon4)cc3)C2c2cccc(F)c2)cc1 (stereo not drawn) [Example I-26, 5-(3-fluorophenyl)-3-hydroxy-1-(4-isoxazol-3-ylphenyl)-4-(4-methoxybenzoyl)-1,5-dihydropyrrol-2-one] | 273 to 274 °C (dec.)
27 | COc1ccc(C(=O)C2=C(O)C(=O)N(c3ccc(-c4ccon4)cc3)C2C2CCN(C(=O)OC(C)(C)C)CC2)cc1 (stereo not drawn) [Example I-222] | 247 to 249 °C

Row | Compound | melting point
28 | COc1ccc(C(=O)C2=C(O)C(=O)N(c3ccc(-c4nnco4)cc3)C2c2ccc(F)cc2)cc1 (stereo not drawn) [Example I-213] | 244 to 247 °C
29 | COc1ccc(C(=O)C2=C(O)C(=O)N(c3ccc(-c4cc(C)no4)cc3)C2c2ccc(F)cc2)cc1 (stereo not drawn) [Example I-219] | 249 to 252 °C
30 | COc1ccc(C(=O)C2=C(O)C(=O)N(c3ccc(-c4ccon4)cc3)C2c2ccc(Cl)cc2)cc1 (stereo not drawn) [Example I-11] | 268 to 270 °C (dec.)
31 | COc1ccc(C(=O)C2=C(O)C(=O)N(c3ccc(-c4ccon4)cc3)C2C(C)c2ccccc2)cc1 (stereo not drawn) [Example I-221] | 241 to 244 °C
32 | CCC(CC)C1C(C(=O)c2ccc(OC)nc2)=C(O)C(=O)N1c1ccc(-c2ccon2)cc1 (stereo not drawn) [Example I-207] | 246 to 249 °C
33 | COc1ccc(C(=O)C2=C(O)C(=O)N(c3ccc(C4=NCCS4)cc3)C2C2CCCCC2)cc1 (stereo not drawn) [Example I-233] | 247 to 250 °C
34 | COc1ccc(C(=NO)C2=C(OCc3ccccc3)C(=O)N(c3ccc(C(F)(F)F)cc3)C2c2ccccc2)cc1 (stereo not drawn) [Example I-250] | 197 to 204 °C
35 | CO/N=C(\C)c1ccc(N2C(=O)C(O)=C(C(=O)c3ccc(OC)cc3)C2c2ccc(F)cc2)cc1 (stereo not drawn) [Example I-227] | 221 to 224 °C
36 | COc1ccc(-c2n[nH]c3c2C(c2ccc(F)cc2)N(c2ccc(-c4ccon4)cc2)C3=O)cc1 (stereo not drawn) [Example I-210] | 164 to 166 °C
37 | COC1=C(C(=O)C(C)(C)C)C(c2ccccc2OC)N(c2ccc(-c3ccon3)cc2)C1=O (stereo not drawn) [II-156] | 136 to 137 °C
38 | CCC(CC)C1C(C(=O)c2ccc(OC)cc2)=C(O)C(=O)N1c1ccc(C2=NCCS2)cc1 (stereo not drawn) [Example I-234] | 230 to 233 °C
39 | CCOC(=O)c1ccc(N2C(=O)C(O)=C(Cc3ccccc3)C2c2ccc(OC)cc2)cc1 (stereo not drawn) [Example I-203] | 160 to 161 °C
40 | CC(C)(C)C(=O)C1=C(O)C(=O)N(c2ccc(-c3ccon3)cc2)C1C1CCCCC1 (stereo not drawn) [Example I-32, 5-cyclohexyl-4-(2,2-dimethylpropionoyl)-3-hydroxy-1-(4-isoxazol-3-ylphenyl)-1,5-dihydropyrrol-2-one] | 259 to 260 °C
41 | COc1ccc(C(=O)C2=C(O)C(=O)N(c3ccc(-c4ccon4)cc3)C2c2ccccn2)cc1 (stereo not drawn) [Example I-236] | 232 to 234 °C
42 | COc1ccc(C(=O)C2=C(O)C(=O)N(c3ccc(-c4ccon4)cc3)C2c2ccccc2F)cc1 (stereo not drawn) [Example I-31] | 270 to 271 °C (dec.)
43 | CCCC(C)C1C(C(=O)c2ccc(OC)cc2)=C(O)C(=O)N1c1ccc(-c2ccon2)cc1 (stereo not drawn) [Example I-214] | 227 to 232 °C
44 | COc1ccc(C(=O)C2=C(O)C(=O)N(Cc3ccc(C(F)(F)F)cc3)C2c2ccc(F)cc2)cc1 (stereo not drawn) [Example I-204] | 234 to 237 °C
45 | CCCC(CCC)C1C(C(=O)c2ccc(OC)cc2)=C(O)C(=O)N1c1ccc(-c2ccon2)cc1 (stereo not drawn) [Example I-220] | 229 to 231 °C
46 | COc1ccc(C(=O)C2=C(O)C(=O)N(c3ccc(C(=O)O)cc3)C2c2ccccc2)cc1 (stereo not drawn) [Example I-87] | 268 to 271 °C
47 | COc1ccc(C(=O)C2C(=O)C(=O)N(c3ccc(OC)cc3)C2c2ccc(F)cc2)cc1 (stereo not drawn) [Example I-73] | 245 to 247 °C
48 | COc1ccc(C(=O)C2=C(O)C(=O)N(c3ccc(-c4ccon4)cc3)C2c2cccc(Cl)c2)cc1 (stereo not drawn) [Example I-27] | 238 to 240 °C
49 | COc1ccc(C(=O)C2C(=O)C(=O)N(c3ccc(-c4ccon4)cc3)C2c2ccccc2Cl)cc1 (stereo not drawn) [Example I-40] | 254 to 258 °C (dec.)
50 | COc1ccc(-c2n[nH]c3c2C(c2ccc(F)cc2)N(c2ccc(C(F)(F)F)cc2)C3=O)cc1 (stereo not drawn) [Example I-228] | 217 to 218 °C
51 | COc1ccc(C(=O)C2=C(O)C(=O)N(c3ccc(-c4ccon4)cc3)C2c2cccc(OC)c2)cc1 (stereo not drawn) [Example I-46] | 238 to 240 °C
52 | COc1ccc(C(=O)C2C(=O)C(=O)N(c3ccc(-c4cnco4)cc3)C2c2ccc(F)cc2)cc1 (stereo not drawn) [Example I-64] | 245 to 246 °C
53 | COc1ccc(C2C(Cc3ccccc3)=C(O)C(=O)N2c2ccc(F)cc2)cc1 (stereo not drawn) [Example I-202] | 177 to 178 °C
54 | COc1ccc(C(=O)C2=C(OCc3ccccc3)C(=O)N(c3ccc(C(F)(F)F)cc3)C2c2ccccc2)cc1 (stereo not drawn) [Example I-217] | 173 to 174 °C

— patent publication US8497263B2, “Pyrrolinone derivative and pharmaceutical composition comprising the same” (Shionogi & Co., Ltd., priority 2007, dated 2013)
